In patent publication US7459268B2, “Method for screening agent acting on cell wall” (Daiichi Pharmaceutical Co., Ltd., priority 2001, dated 2008):

What was measured:
[1] = system: AY-2 strain (wall-type arming yeast); assay: GFP releasing effect of available antifungal agents, wall-type arming yeast; type: cell-based, S. cerevisiae; settings: RPMIB medium protected for osmotic pressure
Method: (§1) The cultured yeast cells in the logarithmic growth phase (AY-2 strain or AY-12 strain) were collected, and various agents were allowed to act on the yeast cells. Fluorescence intensity of the culture supernatant was measured by using Cytofluor 2300 Fluorometer (Millipore, excitation=480 nm, emission=530 nm). The fluorescence intensity under treatment with each of various agents was shown in terms of a difference in fluorescence intensity compared with that of a control in which no agent was added.
(§2) In order to ascertain whether or not the aforementioned method can be utilized for a screening of agents with a targeting site other than Kre6p, the GFP releasing effects in the AY-2 strain (wall-type arming yeast) and the AY-12 strain (membrane-type arming yeast) were compared under actions of available antifungal agents. The AY-2 strain cells and the AY-12 strain cells each cultured in a test tube were suspended with a medium (RPMIB) protected for osmotic pressure, and each of the agents was allowed to act on the cells. After the culture, the fluorescence intensity of the supernatant was measured, and a difference from that of a control with no addition of the agent was calculated.

[2] = system: AY-12 strain (membrane-type arming yeast); assay: GFP releasing effect of available antifungal agents, membrane-type arming yeast; type: cell-based, S. cerevisiae; settings: RPMIB medium protected for osmotic pressure
Method: as §1, §2

AY-14 strain [3] = assay: GFP release by cell wall synthesis inhibitors; type: cell-based, Saccharomyces cerevisiae; settings: each agent alone
From the text: As agents confirmed to have a yeast cell wall synthesis inhibitory action, tunicamycin (TM, Funakoshi, Tokyo), aculeacin A (AC, Wako Pure Chemical Industries, Osaka) and staurosporine (SP, Boehringer Mannheim, Tokyo) were used. The AY-14 strain was used as a microorganism.
Thus, it is evident that inhibitors for the (1,3)-β-glucan synthesis pathway, N-type saccharide chain synthesis pathway, saccharide chain (glucan) synthesis regulatory pathway and the like can also be screened.

AY-14 strain [4] = assay: Molecular weight of released GFP by Western blotting after agent treatment; type: cell-based, Saccharomyces cerevisiae; settings: agent alone
Method: Cells at the logarithmic growth phase were collected after inoculation to the liquid medium and culture at 30° C., and suspended in a fresh medium of the same type to prepare a cell suspension for inoculation. The cells were cultured at 30° C. Fluorescence intensity of the culture supernatant was measured (excitation=480 nm, emission=530 nm) by using ARVO sx (Wallac, Tokyo). The GFP releasing effect of the gene-disrupted strains was represented in terms of a difference with that of a non-gene-disrupted strain (AY-10u strain or AY12u strain). After the measurement of fluorescence intensity, the culture supernatants were concentrated by ultrafiltration. The concentrated supernatants were subjected to separation by SDS-PAGE and blotted on a PVDF membrane, and GFP was detected by using commercially available anti-GFP antibodies (rabbit IgG, Santa Cruz Biotechnology) to compare the molecular weights (Western blotting).
As agents confirmed to have a yeast cell wall synthesis inhibitory action, tunicamycin (TM, Funakoshi, Tokyo), aculeacin A (AC, Wako Pure Chemical Industries, Osaka) and staurosporine (SP, Boehringer Mannheim, Tokyo) were used. The AY-14 strain was used as a microorganism. […]

C[C@@H]1[C@H](O)[C@@H](C)/C=C/C=C/C=C/C=C/C=C/C=C/C=C/[C@H](O[C@@H]2O[C@H](C)[C@@H](O)[C@H](N)[C@@H]2O)C[C@@H]2O[C@](O)(C[C@@H](O)C[C@@H](O)[C@H](O)CC[C@@H](O)C[C@@H](O)CC(=O)O[C@H]1C)C[C@H](O)[C@H]2C(=O)O [Amphotericin B]
GFP releasing effect (fluorescence intensity of culture supernatant, difference from control with no agent) [1]: Slight releasing effect | GFP releasing effect (fluorescence intensity of culture supernatant, difference from control with no agent) [2]: Slight releasing effect

OC(Cn1cncn1)(Cn1cncn1)c1ccc(F)cc1F [Fluconazole]
GFP releasing effect (fluorescence intensity of culture supernatant, difference from control with no agent) [1]: Slight releasing effect | GFP releasing effect (fluorescence intensity of culture supernatant, difference from control with no agent) [2]: Slight releasing effect

CN[C@@H]1C[C@H]2O[C@@](C)([C@@H]1OC)n1c3ccccc3c3c4c(c5c6ccccc6n2c5c31)C(=O)NC4 [SP, staurosporine]
release of GFP (AY-14 strain [3]): release of GFP was observed

CC[C@@H](C(=O)[C@@H](C)[C@@H](O)[C@H](C)[C@@H]1O[C@@H]([C@@H](CC)C(=O)O)CC[C@@H]1C)[C@H]1O[C@]2(C=C[C@@H](O)[C@]3(CC[C@@](C)([C@H]4CC[C@](O)(CC)[C@H](C)O4)O3)O2)[C@H](C)C[C@@H]1C [Salinomycin]
GFP releasing effect (fluorescence intensity of culture supernatant, difference from control with no agent) [1]: Slight releasing effect | GFP releasing effect (fluorescence intensity of culture supernatant, difference from control with no agent) [2]: Slight releasing effect

Aculeacin A
GFP releasing effect (fluorescence intensity of culture supernatant, difference from control with no agent) [1]: Marked GFP releasing effect | GFP releasing effect (fluorescence intensity of culture supernatant, difference from control with no agent) [2]: almost no releasing effect | release of GFP (AY-14 strain [3]): release of GFP was observed

Tunicamycin
GFP releasing effect (fluorescence intensity of culture supernatant, difference from control with no agent) [1]: Marked GFP releasing effect | GFP releasing effect (fluorescence intensity of culture supernatant, difference from control with no agent) [2]: almost no releasing effect | release of GFP (AY-14 strain [3]): release of GFP was observed | molecular weight of released GFP compared with that in the absence of agent (AY-14 strain [4]): markedly lowered
